From patent publication EP1043336A2, “Stereospecific antibodies for imidazolinone herbicides” (The Regents of the University of California, priority 1999, dated 2000)

Experiments:
Format in all cases: binding, mouse
[1] = molecular target: MAb 3A2; test: Kinetic exclusion fluoroimmunoassay (KinExA), equilibrium dissociation constant; details: hapten conjugate 16-BSA, racemic hapten conjugate
Method: (§1) 1. Binding Kinetics. The equilibrium dissociation constants (KD) for MAbs 3A2 and 3A5 were measured by kinetic exclusion fluoroimmunoassay (KinExA) (Blake, D. A., et al. 1997. Characterization of a metal-specific monoclonal antibody. In: Immunochemical Technology for Environmental Applications (ACS Symposium Series 657), eds. DS Aga, EM Thurmann, pp. 49-60. Washington, D.C.: American Chemical Society.), and also in a Pharmacia BIAcore surface plasmon resonance instrument (Malmborg, A.-C. and Borrebaeck, C. A. K. 1995. BIAcore as a tool in antibody engineering. J. Immunol. Methods 183: 7-13.). Since the hapten conjugates used in these rate studies were racemic mixtures, the dissociation constants obtained can only be a median rate for the different chiral isomers.
(§2) The KinExA directly measures free antibody in solution equilibrium by trapping it on beads coated with hapten conjugate. […] 2. […] 4.

[2] = molecular target: MAb 3A5 (VH and VL N-termini SEQ.ID NOS. 1 and 2); test: as above; details: hapten conjugate 16-BSA, racemic hapten conjugate
Method: as §1, §2

[3] = molecular target: MAb 3A2; test: BIAcore surface plasmon resonance, equilibrium dissociation constant; details: racemic hapten conjugate
Method: as §1, §2

[4] = molecular target: MAb 3A5 (VH and VL N-termini SEQ.ID NOS. 1 and 2); test: as above; details: racemic hapten conjugate
Method: as §1, §2

[5] = tested on: panel of monoclonal antibodies (MAbs); test: Detection of imidazolinones by the panel of MAbs (EIA)
Method: EIAs were done essentially as described by Karu et al (1994). For indirect EIAs, hapten-protein conjugates were adsorbed to wells of Immulon 2™ 96-well plates (Dynatech) in 0.1 mL of coating buffer (0.015 M Na2CO3 ― 0.035 M NaHCO3 ―0.003 M NaN3, pH 9.6). PBS-Tween containing 0.05% gelatin, 0.45 micron-filtered, was used as the diluent for antibodies and antibody-analyte mixtures, and as a blocking solution to prevent adventitious binding. The detecting antibody for the indirect EIAs was alkaline phosphatase conjugated goat anti-mouse IgG and IgM The substrate solution for color development was p-nitrophenyl phosphate 1 mg/mL, in 10% (w/v) diethanolamine-HCl, pH 9.8 ― 0.5 mM MgCl2 ― 3 mM NaN3. • 1. Indirect competition EIA. Indirect competition EIA (immobilized hapten conjugate) was used to evaluate the responses of mice, screen the MAbs, and quantify imidazolinone analytes. Optimal amounts of imidazolinone-BSA or -OVA conjugate for plate coating and dilutions for the hybridoma culture supernate or antiserum were determined by checkerboard assay. To perform the assay, wells were coated overnight at 4°C with a limiting amount of conjugate in 0.1 mL of coating buffer. Imidazolinone standards (0.5 to 5000 ppb) or unknowns were mixed with a limiting amount of antiserum or hybridoma culture fluid in the diluent and incubated overnight at 4°C in tightly sealed polypropylene tubes. The coated wells were washed and blocked with 0.2 mL of 0.05% gelatin in PBS-Tween for 30 minutes at room temperature. After another wash, aliquots (0.1 mL) of the antibody-analyte mixture were added to wells, and the remainder of the assay was performed as previously described (Karu et al., 1994). • 2. Direct competition EIA. Direct EIAs were performed by capturing the MAb on microwells and allowing the analyte to compete with a HRP-conjugated hapten for binding. Bound HRP-conjugate was then detected with a commercial HRP substrate. The sensitivity of this assay was enhanced by use of a commercial enzymatic signal amplification kit (GIBCO-BRL). Wells were coated with 200 or 500 ng of affinity-purified goat anti-mouse IgG or anti-mouse IgG Fc in the coating buffer at 4°C overnight. The next day, the wells were washed and blocked with PBS-Tween-gelatin for 30 minutes at room temperature, and then incubated for 1.5 hours at room temperature with hybridoma culture supernate. The plates were washed with PBS-Tween, and 0.1 mL of diluent containing the analyte and a limiting amount of biotinylated imidazolinone was added for 1.5 h at room temperature. The wells were washed three times with PBS-Tween, and Extravidin-alkaline phosphatase conjugate (Sigma) was then added for 30 minutes at room temperature. The plates were washed again with TBS (0.05 M Tris-HCl, pH 7.5,― 0.15 M NaCl) to remove remaining inorganic phosphate, which can inhibit the GIBCO-BRL EIA Amplification system. Substrate solution for the amplification step (0.05 mL) was added for 15 minutes at room temperature, followed by 0.05 mL of the enzymatic amplifying solution and chromogen. Color development at 492 nm was recorded. • 3. EIA Data Analysis. Color development was monitored on a Multiskan EIA reader (Flow Laboratories) interfaced with a Macintosh computer, and the rates of the reaction were calculated by linear regression. Competition EIA dose- response curves were fitted with a 4-parameter logistic equation (Karu et al., 1994).

CCc1cnc(C2=NC(C)(C(C)C)C(=O)N2)c(C(=O)O)c1 (stereo not shown) [imazethapyr, 5-ethyl-2-(4-isopropyl-4-methyl-5-oxo-2-imidazolin-2-yl) nicotinic acid]
Kd [1]: 11.4 nM
Kd [2]: 73 nM
Kd ([3]; hapten conjugate 16-OA): 24.7 nM
Kd ([3]; hapten conjugate 17-OA): 51.6 nM
Kd ([4]; hapten conjugate 16-OA): 9.6 nM
Kd ([4]; hapten conjugate 17-OA): 10.8 nM
detection range [5]: 3 to 30 ng/mL
